Structure (SMILES) | melting point
Cc1cccc(-c2nc(NC(=O)c3cccnc3)sc2-c2ccnc(C)c2)c1 [H 41, N-[4 (3 methylphenyl)-5 (2-methyl-4 pyridyl)-1,3 thiazol-2 yl]nicotinamide] | 175 to 178 °C
Cc1cccc(-c2nc(-c3ccc(S(C)(=O)=O)cc3)sc2-c2ccnc(NC(=O)c3ccc4ccccc4c3)c2)c1 [D 21-4, N-[4 [4 (3 methylphenyl)-2-(4 methylsulfonylphenyl)-1,3 thiazol-5 yl]-2 pyridyl]-2-naphthamide] | 231 to 233 °C
CC(=O)Nc1nc(-c2cccc(C)c2)c(-c2cc(C)nc(C)c2)s1 [H 40-2, N-[5 (2,6 dimethyl-4-pyridyl)-4 (3 methylphenyl)-1,3 thiazol-2 yl]acetamide] | 185 to 187 °C
Cc1cccc(-c2nc(N(C)C(=O)c3cccnc3)sc2-c2ccnc(NC3CCCCC3)c2)c1 [L 65-4, N-methyl-N-[5 (2-cyclohexylamino-4 pyridyl)-4 (3 methylphenyl)-1,3 thiazol-2-yl]nicotinamide] | 135 to 136 °C
Cc1cccc(-c2nc(NC(=O)Nc3ccccc3)sc2-c2ccnc(C)c2)c1 [H 53-4, N-[4 (3 methylphenyl)-5-(2 methyl-4 pyridyl)-1,3 thiazol-2 yl]-N′-phenylurea] | 168 to 169 °C
CCc1nc(-c2cccc(C(C)C)c2)c(-c2ccnc(N)c2)s1 [H 20-10, 4 [2 ethyl-4 [3 (1-methylethyl)phenyl]-1,3 thiazol-5 yl]-2 pyridylamine] | 80 to 81 °C
Cc1cccc(-c2nc(N(C)C(=O)c3ccc(C)nc3)sc2-c2ccnc(NC3CCCC3)c2)c1 [L 67-2, N-[5 (2 cyclopentylamino-4-pyridyl)-4 (3 methylphenyl)-1,3 thiazol-2 yl]-N, 6-dimethylnicotinamide] | 176 to 177 °C
CCc1nc(-c2ccc(F)cc2)c(-c2ccnc(N)c2)s1 [H 20-3, 4 [2 ethyl-4 (4-fluorophenyl)-1,3 thiazol-5 yl]-2 pyridylamine] | 140 to 141 °C
CCC(=O)Nc1cc(-c2sc(C(C)=O)nc2-c2cccc(Cl)c2)ccn1 [H 107, N-[4 [2 acetyl-4 (3-chlorophenyl)-1,3 thiazol-5 yl]-2 pyridyl]propionamide] | 115 to 117 °C
CCCCc1nc(-c2cccc(C)c2)c(-c2ccnc(NC(=O)Cc3ccccc3)c2)s1 [D 15-4, N-[4-[2-butyl-4-(3-methylphenyl)-1,3-thiazol-5-yl]-2-pyridyl]phenylacetamide] | 92 to 93 °C
Cc1cccc(-c2nc(-c3ccc(F)cc3)sc2-c2ccnc(C)c2)c1 [H 14-4, 2 (4 fluorophenyl)-4 (3-methylphenyl)-5 (2 methyl-4 pyridyl)-1,3 thiazole] | 89 to 91 °C
CCOC(=O)Cc1nc(-c2cccc(C)c2)c(-c2ccnc(N)c2)s1 [H 18-5, Ethyl [5 (2 amino-4-pyridyl)-4 (3 methylphenyl)-1,3 thiazol-2 yl]acetate] | 128 to 129 °C
Cc1cc(C)cc(-c2nc(NC(=O)c3cnccn3)sc2-c2ccncc2)c1 [23-246, N-[4 (3,5 dimethylphenyl)-5 (4 pyridyl)-1,3 thiazol-2-yl]pyrazinecarboxamide] | 269 to 270 °C
CCc1nc(-c2ccccc2)c(-c2ccnc(N)c2)s1 [H 20-2, 4 (2 ethyl-4 phenyl-1,3-thiazol-5 yl)-2 pyridylamine] | 158 to 159 °C
COc1ccc(-c2nc(C)sc2-c2ccnc(NCc3ccccc3)c2)cc1 [D 19-1, N-benzyl-N-[4 [4 (4 methoxyphenyl)-2 methyl-1,3 thiazol-5 yl]-2 pyridyl]amine] | 132 to 133 °C
CCC(=O)Nc1cc(-c2sc(CC)nc2-c2ccc(Cl)cc2)ccn1 [H 84-6, N-[4 [4 (4 chlorophenyl)-2-ethyl-1,3 thiazol-5 yl]-2 pyridyl]propionamide] | 152 to 153 °C
CCc1nc(-c2cccc(C#N)c2)c(-c2ccnc(N)c2)s1 [H 76, 4 [4 (3 cyanophenyl)-2 ethyl-1,3 thiazol-5 yl]-2 pyridylamine] | 178 to 179 °C
CCc1nc(-c2cccc(C(=O)O)c2)c(-c2ccnc(N)c2)s1 [H 77, 3 [5 (2 amino-4 pyridyl)-2 ethyl-1,3 thiazol-4 yl]benzoic acid] | 273 to 274 °C
Cc1cc(C)cc(-c2nc(NC(=O)C(C)C)sc2-c2ccncc2)c1 [23-195, N-[4 (3,5 dimethylphenyl)-5 (4 pyridyl)-1,3 thiazol-2 yl]-2-methylpropionamide] | 270 to 272 °C
Cc1cccc(-c2nc(-c3ccc(S(C)(=O)=O)cc3)sc2-c2ccnc(NC3CCCC3)c2)c1 [H 36-7, N-cyclopentyl-4-[4-(3-methylphenyl)-2-(4-methylsulfonylphenyl)-1,3-thiazol-5-yl]-2-pyridylamine] | 154 to 156 °C
CCC(=O)Nc1cc(-c2sc(C3CCN(C(C)=O)CC3)nc2-c2cccc(Cl)c2)ccn1 [H 94, N-[4 [2 (1 acetylpiperidin-4-yl)-4 (3 chlorophenyl)-1,3 thiazol-5 yl]-2-pyridyl]propionamide] | 174 to 175 °C
Cc1cc(C)cc(-c2nc(NC(=O)C3CCCC3)sc2-c2ccncc2)c1 [23-198, N-[4 (3,5 dimethylphenyl)-5 (4 pyridyl)-1,3 thiazol-2-yl]cyclopentanecarboxamide] | 275 to 278 °C

Structure (SMILES) | melting point
CC(C)(C)c1ccc(-c2nc(NC(=O)c3ccccc3)sc2-c2ccncc2)cc1 [23-164, N-[4 [4 (1,1 dimethylethyl)phenyl]-5 (4 pyridyl)-1,3 thiazol-2 yl]benzamide] | 292 to 294 °C
CC(C)(C)c1ccc(-c2nc(NC(=O)C3CCCC3)sc2-c2ccncc2)cc1 [23-168, N-[4 [4 (1,1 dimethylethyl)phenyl]-5 (4 pyridyl)-1,3 thiazol-2 yl]cyclopentanecarboxamide] | 309 to 311 °C
CCC(=O)Nc1cc(-c2sc(CC)nc2-c2cccs2)ccn1 [H 30-10, N-[4 [2 ethyl-4 (2-thienyl)-1,3 thiazol-5 yl]-2 pyridyl]propionamide] | 187 to 188 °C
Cc1cccc(-c2nc(-c3ccc(F)cc3)sc2-c2ccnc(NCc3ccccc3)c2)c1 [D 19-11, N-benzyl-N-[4 [2 (4-fluorophenyl)-4 (3 methylphenyl)-1,3 thiazol-5 yl]-2-pyridyl]amine] | 143 to 146 °C
Cc1cccc(-c2nc(-c3ccccc3Cl)sc2-c2ccnc(NCCc3ccccc3)c2)c1 [D 19-15, N-[4 [2 (2 chlorophenyl)-4 (3 methylphenyl)-1,3 thiazol-5 yl]-2 pyridyl]-N-(2-phenylethyl)amine] | 113 to 114 °C
Cc1cccc(-c2nc(Cc3ccccc3)sc2-c2ccnc(C)c2)c1 [H 14-7, 4 (3 methylphenyl)-5 (2-methyl-4 pyridyl)-2 (phenylmethyl)-1,3 thiazole] | 82 to 84 °C
Cc1cccc(-c2nc(-c3ccccc3F)sc2-c2ccnc(C)c2)c1 [H 14-3, 2 (2 fluorophenyl)-4 (3-methylphenyl)-5 (2 methyl-4 pyridyl)-1,3 thiazole] | 73 to 74 °C
CCc1nc(-c2cccc(C(F)(F)F)c2)c(-c2ccnc(N)c2)s1 [H 20-4, 4 [2 ethyl-4 [3-(trifluoromethyl)phenyl]-1,3 thiazol-5 yl]-2 pyridylamine] | 117 to 118 °C
CCc1nc(-c2cccc(C)c2)c(-c2ccnc(NC(=O)c3ccc(F)cc3)c2)s1 [L 39-5, N-[4 [2 ethyl-4 (3-methylphenyl)-1,3 thiazol-5 yl]-2 pyridyl]-4 fluorobenzamide] | 110 to 111 °C
CCC(=O)Nc1cc(-c2sc(CC)nc2-c2ccccc2)ccn1 [H 84-1, N-[4 (2 ethyl-4 phenyl-1,3-thiazol-5 yl)-2 pyridyl]propionamide] | 139 to 140 °C
CCc1nc(-c2cccc(C)c2)c(-c2ccnc(NCC3CCCC3)c2)s1 [H 32, N-(cyclopentylmethyl)-4 [2-ethyl-4 (3 methylphenyl)-1,3 thiazol-5 yl]-2 pyridylamine] | 67 to 69 °C
CCCCCC(=O)Nc1cc(-c2sc(CC)nc2-c2cccc(C)c2)ccn1 [H 87-2, N-[4 [2 ethyl-4 (3-methylphenyl)-1,3 thiazol-5 yl]-2 pyridyl]hexanamide] | 84 to 85 °C
CCc1nc(-c2cccc(C)c2)c(-c2ccnc(N3CCOCC3)c2)s1 [H 36-9, 2 ethyl-4 (3-methylphenyl)-5 (2 morpholino-4 pyridyl)-1,3 thiazole] | 69 to 71 °C
Cc1cccc(-c2nc(NC(=O)c3ccc(Cl)nc3)sc2-c2ccnc(NC3CCCC3)c2)c1 [H 44-2, 6 chloro-N-[5 (2-cyclopentylamino-4 pyridyl)-4 (3 methylphenyl)-1,3 thiazol-2-yl]nicotinamide] | 211 to 212 °C
Cc1cccc(-c2nc(-c3ccccc3Cl)sc2-c2ccnc(C)c2)c1 [H 14-1, 2 (2 chlorophenyl)-4 (3-methylphenyl)-5 (2 methyl-4 pyridyl)-1,3 thiazole] | 83 to 84 °C
CC(C)(C)c1ccc(-c2nc(N)sc2-c2ccncc2)cc1 [23-143, [4 [4 (1,1 dimethylethyl)phenyl]-5 (4 pyridyl)-1,3 thiazol-2-yl]amine] | 254 to 257 °C
Cc1cccc(N2C=C(c3cc(C)nc(C)c3)SC2N)c1 (stereo not shown) [H 7-6, [5 (2,6 dimethyl-4-pyridyl)-3 (3 methylphenyl)-1,3 thiazol-2 yl]amine] | 214 to 216 °C
COc1ncccc1C(=O)Nc1nc(-c2cccc(C)c2)c(-c2ccnc(C)c2)s1 [H 49, 2 methoxy-N-[4 (3-methylphenyl)-5 (2 methyl-4 pyridyl)-1,3 thiazol-2-yl]nicotinamide] | 169 to 170 °C
CC(=O)Nc1nc(-c2cc(C)cc(C)c2)c(-c2cc(C)nc(C)c2)s1 [H 40-3, N-[4 (3,5 dimethylphenyl)-5 (2,6 dimethyl-4 pyridyl)-1,3 thiazol-2 yl]acetamide] | 266 to 267 °C
CCC(=O)Nc1cc(-c2sc(CC)nc2-c2cccc(Cl)c2)ccn1 [H 30-8, N-[4-[4-(3-chlorophenyl)-2-ethyl-1,3-thiazol-5-yl]-2-pyridyl]propionamide] | 132 to 133 °C
CCNC(=O)Nc1nc(-c2cc(C)cc(C)c2)c(-c2ccncc2)s1 [23-201, N-[4 (3,5 dimethylphenyl)-5 (4 pyridyl)-1,3 thiazol-2 yl]-N′-ethylurea] | 202 to 203 °C
